Assay [1] concerns α-glucosidase from Saccharomyces cerevisiae. Kind of assay: α-Glucosidase inhibition assay (pNPG substrate, absorbance at 405 nm). It is filed as biochemical. Particulars: for α-glucosidase inhibitory effect at a single concentration: at a concentration of 100 μM; for IC50: in vitro, PBS pH 7.0, 37 °C, triplicate, read-out: α-Glucosidase inhibitory activity IC50. On the procedure:
An […] were used to measure the circular dichroism (ECD) and the UV spectra, respectively. ECD and UV spectra were recorded at the range of 200–400 nm under N2 gas […]. IR spectra were recorded on a Shimadzu IR Affinity-1 spectrophotometer. All the NMR spectra were measured on a 600 MHz Bruker Avance-III HD spectrometer and the tetramethylsilane was used as an internal standard. HR-ESI-MS was measured on a Bruker maXis high-resolution mass spectrometer. A Shimadzu LC-20 AT (equipped with an SPD-M20A PDA detector) was used for the preparative separations. The ACE 5 PFP-C18 column (250 × 10.0 mm, 5 μm, 12 nm) was used for semi-preparative HPLC separation and the CHIRAL-MD (2)-RH column (250 × 10.0 mm, 5 μm) was used for chiral separation (Guangzhou FLM Scientific Instrument Co., Ltd, Guangzhou, China). The commercial silica gel (SiO2; 200–300 mesh; Qingdao Marine Chemical Plant, Qingdao, China) and Sephadex LH-20 gel (GE Healthcare Bio-Sciences ABSE-751, Uppsala, Sweden) were used for column chromatography. All solvents were of analytical grade (Guangzhou Chemical Regents Company, Ltd., Guangzhou, China). The natural sea salt was purchased from Guangdong Yueyan saltern. The α-glucosidase from Saccharomyces cerevisiae and p-nitrophenyl-α-d-glucopyranoside (p-NPG) used in bioassays were purchased from Sigma-Aldrich (St. Louis, MO, USA).
The method used for the α-glucosidase inhibitory activity assay was based on previously reported literature with slight modification. The pre-reaction mixture consisted of 130 μL of PBS (100 mM, pH 7.0), 30 μL of enzyme (1 U/mL) and 0.5 μL of the test compounds at different concentrations. After incubation at 37 °C for 10 min, 40 μL of pNPG was added and the mixture was further incubated at 37 °C for 15 min. Finally, the absorbance was measured at 405 nm on an automatic microplate reader. […] All experiments were carried out in triplicate.

Another assay has as its system α-glucosidase. Also noted: method as in PMID 24955555. Particulars: previously reported screening; cited from earlier work.

What is called IC50 is the concentration needed to halve the response being measured. Take `CSC(=O)c1c(C)cc(O)c(CC=C(C)C)c1O` [Compound 3, Eurothiocin E]: in assay [1], the “α-glucosidase inhibitory effect at a single concentration” value (“α-glucosidase inhibitory effect” below) is recorded as “weak inhibitory effects” and the IC50 was over 100 µM.
Take `CSC(=O)c1c(C)cc2c(c1O)C[C@H](C(C)(C)O)O2` [Compound 7, eurothiocin A]: the “α-glucosidase inhibitor (qualitative)” value in the assay on α-glucosidase is recorded as “potential α-glucosidase inhibitor”.
`CSC(=O)c1c(C)cc(O)c(C/C=C(\C)CO)c1O` [Compound 4, Eurothiocin F]: the IC50 in assay [1] stood at 33.6 µM.
Still for that read-out and setting: in the case of `CSC(=O)c1c(C)cc2c(c1O)CC(C(C)(C)OC1OC(CO)C(O)C(O)C1O)O2` (stereo not drawn) [Compound 2, Eurothiocin D] it was 5.4 µM.
On the same count and under the same terms, the result for `CSC(=O)c1c(C)cc(O)c(CCC(C)(C)O)c1O` [Compound 5, Eurothiocin G] reads 72.1 µM.
As to `COc1c(C)c(C(=O)SC)c(O)c2c1OC(C(C)(C)O)C2` (stereo not drawn) [Compound 1, Eurothiocin C], the “α-glucosidase inhibitory effect” value in assay [1] is reported as “weak inhibitory effects”.
As to `COc1cc(O)cc(C)c1C(=O)SC` [Compound 6, Eurothiocin H], in assay [1], the “α-glucosidase inhibitory effect” value is listed as “weak inhibitory effects” and the IC50 is over 100 µM.

These data come from article PMC8781869, “Thioester-Containing Benzoate Derivatives with α-Glucosidase Inhibitory Activity from the Deep-Sea-Derived Fungus Talaromyces indigoticus FS688” (Marine Drugs, 2021).
